This note sets out measurements from patent publication US20060287316A1, “METHOD FOR IMPROVING PHARMACOKINETICS OF PROTEASE INHIBITORS AND PROTEASE INHIBITOR PRECURSORS” (priority 2005, published 2006).

A short description of data set [1]: Plasma concentration after single oral dose in rats (in vivo cleavage of the phosphate group). Conditions: 50 mg/Kg po, vehicle Mix, 3 rats. Set-up: species or system male Sprague-Dawley rats. The protocol: To assess the extent of in vivo cleavage of the phosphate group from the putative compounds, PL-100, PL-462 (based on PL-100), PL-337 and PL-515 (based on PL-337) compounds were administered po (per os, (i.e., by mouth)) (50 mg/kg) to male Sprague-Dawley rats and their plasma concentration measured at different time intervals post-administration.
All test articles (PL-100, PL-462, PL-337 and PL-515) were prepared in different vehicle at the final concentration of 25 mg/mL. The vehicle composition is as follows: (1) 20% ethanol; 50% propylene glycol; 0.05% w/v Tween 20 and water (Mix); (2) PBS buffer (PBS).
Test articles were administered to male Sprague-Dawley rats at a single oral dose of 50 mg/kg. Each article was tested in three rats. Blood samples (0.2-0.3 mL) were collected at the post-dose time of 10, 20, 40, 60, 120, 180 and 360 minutes. The harvested blood was centrifuged to isolate plasma. The resulting plasma was separated and stored at −70° C.
Plasma samples together with standards and quality control samples were treated to precipitate proteins, then analyzed by HPLC-MS, for the presence of PL-462, PL-100, PL-515 and PL-337.

A short description of data set [2]: Partition coefficient (LogP), octanol / phosphate buffer. The settings on record: octanol / phosphate buffer pH 7.4. The class given is physicochemical. From the text:
The concentration of the compounds in the phases was detected by LC-MS.

The nature of data set [3]: Study 4: ritonavir administered first, PL-461 15 or 30 minutes later. It is filed as in vivo, Sprague Dawley rats. Conditions: test compound 15 or 30 minutes later, compared with the method of studies 1-3.
A short description of data set [4]: Pharmacokinetics of PL-100 and PL-461 in rats. The class given is in vivo, Sprague Dawley rats (Rattus norvegicus). The protocol: Animal tested are Sprague Dawley rats (species Rattus norvegicus) of 6-7 weeks old at the start of dosing and were obtained from Charles River (Montreal, Canada). The study usually comprises about 6 animals per groups. […] The rats were fasted 3 h. before dosing and 3 h. after dosing. The formulations are prepared as indicated below. The solutions are stable at room temperature over a week and are covered with aluminum foil to avoid lights. […] The dosing volume for all formulations is 2 mL per kg body weight. Blood sample was collected at 15 min, 30 min, 45 min, 1 […] after the dosing. Blood samples were centrifuged to separate the plasma and separated plasma samples were placed into cryovials and frozen at -80° C. for further analysis. Plasma samples together with standards and quality control samples were treated by protein precipitation and then analyzed by HPLC-MS. […] The PK profile was obtained by administration of the test drugs; PL-100 and PL-461 in rats. […] The pharmacokinetic parameters of PL-100 and PL-461 in rats** was compared.

Data set [5] in a line: Water solubility. It is filed as physicochemical.

The structures appear in SMILES notation. In brackets after ≈: the same amount, converted by molar mass.

One may read the Cmax as the peak of the concentration-time curve. In general, Tmax refers to the time at which the peak concentration occurs. For orientation: logP means the decadic logarithm of the partition coefficient of the neutral form, usually between octanol and water. A higher logP goes with higher lipophilicity. As to `COC(=O)N[C@H](C(=O)NCCCC[C@@H](CO)N(CC(C)C)S(=O)(=O)c1ccc(N)c(F)c1)C(c1ccccc1)c1ccccc1` [PL-337, (1-{5-[(4-amino-3-fluoro-benzenesulfonyl)-isobutyl-amino]-6-hydroxy-hexylcarbamoyl}-2,2-diphenyl-ethyl)-carbamic acid methyl ester], in data set [1], the AUC is 1.180 ± 0.196 μg/hr * ml. The same compound gave a peak concentration (Cmax) in data set [1] (male, Sprague-Dawley, rat, plasma) of 681 ± 131 nM. Moreover, in data set [1] (male, Sprague-Dawley, rat, plasma, read-out: Tmax (converted)), the Tmax is 1 h. The same compound displayed a logP in data set [2] of 3.8.
As usually defined, the solubility is the concentration that dissolves in the medium under given conditions. A high value points to a readily soluble substance. Take `COC(=O)N[C@H](C(=O)NCCCC[C@@H](COP(=O)(O)O)N(CC(C)C)S(=O)(=O)c1ccc(N)cc1)C(c1ccccc1)c1ccccc1` [PL-461, (1S,5S)-(1-{5-[(4-amino-benzenesulfonyl)-isobutyl-amino]-6-phosphonooxy-hexylcarbamoyl}-2,2-diphenyl-ethyl)-carbamic acid methyl ester]: in data set [3], the “Increase of pharmacokinetics by sequential administration” value is “as efficient at increasing the pharmacokinetics”. Besides, in data set [4] (female, Sprague Dawley, rat, in vivo, po), the “Fold improved oral bioavailability over PL-100” value is 2-3 fold. Besides, in data set [4] (rats, after oral dosing, compared to plasma levels of PL-100), the “Plasma levels of the Lysine-based compound” value was “insignificant or under detection limits”. Moreover, the “Fold more water soluble than PL-100” value in data set [5] is given as above 1800 fold. The Water solubility entry is “moderate water solubility” in data set [5] (acidic conditions (FIG. 4)) and “increases dramatically” in data set [5] (pH>4.5 (FIG. 4)). The same compound yielded a solubility in data set [5] (water, pH 7.5, aqueous buffer) of 145 mg/mL (≈ 206 mM).
